Legend:
[1] = tested on: A549 cells; test: Sphere formation assay in alginate-based 3D cell culture, IC50 compared with clonogenic assay in conventional 2D culture; conditions: for IC50 in the alginate-based 3D cell culture relative to the conventional 2D culture: 3D sphere formation vs 2D clonogenic assay, FIG. 4A; for fold change resistance (IC50 in alginate-based 3D cell culture divided by IC50 in conventional 2D culture): FIG. 4B
Source text: Without limiting the scope of the present disclosure or appended claims with any particular theory or hypothesis, since the stemness is associated with a resistance to chemotherapy, cells cultured in an alginate-based 3D cell culture may be more resistant to chemotherapy drugs and more sensitive to stemness-targeting drugs than cells cultured in traditional 2D cultures. To evaluate the response of cells to drugs, the IC50 values of cells in both the alginate-based 3D and the conventional 2D cell cultures were determined. FIG. 4A summarizes the IC50 of the CSC-targeting therapies (BBI-608, BBI-503), chemotherapies (doxorubicin and gemcitabine), and a targeted therapy (sunitinib) with respect to A549 cells in the alginate-based 3D cell culture and the traditional 2D culture. […] To compare the effect of culturing cells in the alginate-based 3D and the conventional 2D cell cultures on IC50, the fold change in resistance can be calculated by obtaining the ratio of IC50 value in the alginate-based 3D cell culture to the IC50 value in the conventional 2D culture.
Into each well of a flat bottom-96 well plate, 30 μL suspension of the cells in alginate solution was dispensed. 9 μL of crosslinking solution was then added to each well to form alginate gels and thus embed A549 cells into the gel matrix. The plates were then incubated for 15 minutes at 37° C. to ensure a complete gelling of alginate, and then cultured in Prime XV media overnight. After the overnight culture, the cells were treated with various concentrations of BBI-608, BBI-503, sunitinib, doxorubicin, or gemcitabine for 24 h. The plates were then washed and cultured in fresh media for an additional 11 days before imaging the cultures with Celigo Imaging Cytometer (Nexcelcom Bioscience, Lawrence, Mass.). The number of spheres were counted, and used to calculate the IC50 values using Prism 5 (GraphPad).
A549 cells were plated in 6-well plates (1×10^3 A549 cells/well). After an overnight incubation in DMEM media, the cells were treated with various concentrations of BBI-608 for 24h, or BBI-503, sunitinib, doxorubicin, and gemcitabine for 72 hours. The plates were washed, and cultured in fresh media for an additional 6 days before staining the colonies with Giemsa Stain (Sigma, St. Louis, Mo.). The colonies were imaged using a ChemiDoc™ MP Imaging System (BioRad), and the number of colonies were counted using ImageJ (National Institutes of Health, Bethsada, Md.), and the IC50 values calculated using Prism 5.

[2] = tested on: A549 cellular spheroids; test: Efficacy on pre-formed cellular spheroids in alginate-based 3D cell culture (CellTox dead stain); conditions: pre-formed A549 spheroids (11 days), concentrations near IC50 values, 7 days after drug treatment; FIG. 5
Experimental: To evaluate the efficacy of the drugs in diffusion-limited environments, A549 cells were embedded and cultured for 11 days before any drug treatment (BBI-608, BBI-503, gemcitabine, or doxorubicin). Spheroids of A549 cells were pre-formed from single cells embedded in an alginate-based 3D cell culture for 11 days. The pre-formed spheroids were treated with drugs (0.3 μM BBI-608, 2.5 μM BBI-503, 30 μM sunitinib, 4 μM doxorubicin, 0.5 μM gemcitabine) and incubated with the dead stain CellTox Dye. Micrographs were taken 7 days after the drug treatments.
In a 6-well plate, A549 cells were embedded in an alginate-based 3D cell culture and cultured for 11 days before addition of BBI-608, BBI-503, sunitinib, doxorubicin, and gemcitabine. Cells were cultured for an additional 7 days before staining them with CellTox™ Green Dye (Promega) to stain the dead cells. Images of the stained samples were taken using an EVOS fluorescence microscope (Life Technologies, Carlsbad, Calif.).

| Compound | IC50 in the alginate-based 3D cell culture relative to the conventional 2D culture [1] | fold change resistance (IC50 in alginate-based 3D cell culture divided by IC50 in conventional 2D culture) [1] | cell death, share of spheroids [2] |
| --- | --- | --- | --- |
| CCN(CC)CCNC(=O)c1c(C)[nH]c(/C=C2\C(=O)Nc3ccc(-c4csc(-c5ccccc5)n4)cc32)c1C [BBI-503] | lower | less than single-fold | about 90% |
| CC(=O)c1cc2c(o1)C(=O)c1ccccc1C2=O [BBI-608, 2-acetylnaphtho[2,3-b]furan-4,9-dione] | lower | less than single-fold | about 90% |
| COc1cccc2c1C(=O)c1c(O)c3c(c(O)c1C2=O)C[C@@](O)(C(=O)CO)C[C@@H]3O[C@H]1C[C@H](N)[C@H](O)[C@H](C)O1 [doxorubicin, reference compound] | greater | – | – |
| Nc1ccn([C@@H]2O[C@H](CO)[C@@H](O)C2(F)F)c(=O)n1 [gemcitabine, reference compound] | greater | – | – |

— US20190249134A1, “CELL CULTURES AND USE THEREOF” (Boston Biomedical, Inc., priority 2016, published 2019)
